As usually defined, the inhibition is the relative decrease from the control value, in per cent. Low values mean a weak effect, high ones a strong effect. A word on the IC50: it is the point on the concentration scale where inhibition reaches its midpoint.

The source of these data is ChEMBL document CHEMBL5518224, “Rational Design of PARP1/c-Met Dual Inhibitors for Overcoming PARP1 Inhibitor Resistance Induced by c-Met Overexpression” (J Med Chem, 2024).

Each structure is given as a SMILES string. Bounds are passed on as bounds.

In assay [1] the target is T1, Hepatocyte growth factor receptor (Homo sapiens, UniProt P08581). The experiment in a line: Inhibition of c-Met (unknown origin) at 100 nM by HTRF method relative to control. For orientation: In TR-FRET formats the signal depends on donor and acceptor labels being close together.
The target in assay [2] is Poly [ADP-ribose] polymerase 1 (Homo sapiens, UniProt P09874). The experiment in a line: Inhibition of PARP1 (unknown origin) using histone as substrate incubated for 45 mins by absorbance based analysis.
Assay [3] has as its target T1, Hepatocyte growth factor receptor. The experiment in a line: Inhibition of c-Met (unknown origin) by HTRF method.

T1 sequence (P08581 whole entry): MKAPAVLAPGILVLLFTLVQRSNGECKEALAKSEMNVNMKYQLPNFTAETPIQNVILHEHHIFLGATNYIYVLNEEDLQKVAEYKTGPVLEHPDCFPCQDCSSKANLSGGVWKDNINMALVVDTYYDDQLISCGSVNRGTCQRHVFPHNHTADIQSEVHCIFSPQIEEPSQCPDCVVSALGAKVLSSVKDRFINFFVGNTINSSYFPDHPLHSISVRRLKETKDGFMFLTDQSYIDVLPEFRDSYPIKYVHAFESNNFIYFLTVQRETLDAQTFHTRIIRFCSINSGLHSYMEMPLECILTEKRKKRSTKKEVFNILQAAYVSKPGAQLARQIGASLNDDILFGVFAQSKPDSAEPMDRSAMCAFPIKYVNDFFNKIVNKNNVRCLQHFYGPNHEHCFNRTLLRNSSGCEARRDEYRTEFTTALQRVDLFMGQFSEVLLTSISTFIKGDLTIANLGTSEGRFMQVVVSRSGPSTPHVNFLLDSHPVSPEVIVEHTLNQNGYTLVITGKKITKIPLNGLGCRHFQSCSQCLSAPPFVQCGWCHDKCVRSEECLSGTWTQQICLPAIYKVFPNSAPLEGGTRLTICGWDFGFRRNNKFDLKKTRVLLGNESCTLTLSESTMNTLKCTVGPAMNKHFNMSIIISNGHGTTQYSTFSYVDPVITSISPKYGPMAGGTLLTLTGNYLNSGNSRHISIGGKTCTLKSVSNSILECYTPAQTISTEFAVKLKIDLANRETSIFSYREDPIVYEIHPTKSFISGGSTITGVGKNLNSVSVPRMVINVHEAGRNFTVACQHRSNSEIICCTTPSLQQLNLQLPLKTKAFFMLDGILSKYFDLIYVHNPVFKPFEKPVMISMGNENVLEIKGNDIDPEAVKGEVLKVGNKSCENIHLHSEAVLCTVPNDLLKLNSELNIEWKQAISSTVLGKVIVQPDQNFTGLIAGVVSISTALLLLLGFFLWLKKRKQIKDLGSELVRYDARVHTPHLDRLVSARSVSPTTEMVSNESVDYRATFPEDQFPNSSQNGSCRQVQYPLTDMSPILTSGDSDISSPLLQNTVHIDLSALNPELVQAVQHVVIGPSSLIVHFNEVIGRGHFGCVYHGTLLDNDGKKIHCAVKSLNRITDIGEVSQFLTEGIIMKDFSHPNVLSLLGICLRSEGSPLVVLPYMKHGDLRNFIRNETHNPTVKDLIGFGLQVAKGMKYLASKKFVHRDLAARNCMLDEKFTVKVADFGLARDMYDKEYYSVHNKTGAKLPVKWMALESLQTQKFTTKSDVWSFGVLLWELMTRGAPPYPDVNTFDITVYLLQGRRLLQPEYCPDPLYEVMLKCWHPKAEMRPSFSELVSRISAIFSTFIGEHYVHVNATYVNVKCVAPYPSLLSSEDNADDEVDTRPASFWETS
Poly [ADP-ribose] polymerase 1, sequence (P09874 whole entry): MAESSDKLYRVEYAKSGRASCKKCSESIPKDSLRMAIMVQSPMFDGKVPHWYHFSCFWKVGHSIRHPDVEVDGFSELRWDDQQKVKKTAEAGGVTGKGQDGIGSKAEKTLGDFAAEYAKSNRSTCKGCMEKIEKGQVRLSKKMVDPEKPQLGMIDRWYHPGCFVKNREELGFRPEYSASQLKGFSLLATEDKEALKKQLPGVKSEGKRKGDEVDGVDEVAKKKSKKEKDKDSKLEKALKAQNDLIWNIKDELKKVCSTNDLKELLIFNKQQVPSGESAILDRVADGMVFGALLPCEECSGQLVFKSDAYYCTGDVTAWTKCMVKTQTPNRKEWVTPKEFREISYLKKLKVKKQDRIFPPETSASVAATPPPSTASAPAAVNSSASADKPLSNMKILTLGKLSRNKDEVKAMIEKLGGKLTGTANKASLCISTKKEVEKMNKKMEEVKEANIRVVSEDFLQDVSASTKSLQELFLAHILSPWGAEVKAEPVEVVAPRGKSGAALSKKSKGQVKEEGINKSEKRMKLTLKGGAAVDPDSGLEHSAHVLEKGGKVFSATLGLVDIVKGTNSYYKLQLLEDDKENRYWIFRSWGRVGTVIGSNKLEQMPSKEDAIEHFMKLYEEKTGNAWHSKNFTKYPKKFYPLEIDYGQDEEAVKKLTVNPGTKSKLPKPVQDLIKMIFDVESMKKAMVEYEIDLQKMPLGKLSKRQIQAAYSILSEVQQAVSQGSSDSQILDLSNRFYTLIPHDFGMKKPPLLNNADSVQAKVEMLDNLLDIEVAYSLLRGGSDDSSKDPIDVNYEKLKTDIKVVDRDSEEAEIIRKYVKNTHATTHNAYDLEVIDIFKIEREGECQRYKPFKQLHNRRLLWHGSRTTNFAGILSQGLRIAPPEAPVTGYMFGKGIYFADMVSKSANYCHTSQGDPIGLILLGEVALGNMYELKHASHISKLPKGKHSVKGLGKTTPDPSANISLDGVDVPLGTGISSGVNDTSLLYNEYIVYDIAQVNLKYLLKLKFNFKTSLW

`Cn1cc(-c2ccc(=O)n(CCOc3ccnc4cc(OC5CCN(C(=O)c6cc(Cc7n[nH]c(=O)c8ccccc78)ccc6F)CC5)ccc34)n2)cn1`: the inhibition in assay [1] was under 50%. The same compound registered a half-inhibitory concentration (IC50) in assay [2] of 2.1 nM.
For the compound `Cn1cc(-c2ccc(=O)n(CCOc3ccnc4cc(N5CCN(C(=O)c6cc(Cc7n[nH]c(=O)c8ccccc78)ccc6F)C(C)(C)C5)ccc34)n2)cn1`, the inhibition in assay [1] was under 50%. Also, in assay [2], the IC50 was over 1000 nM.
With `O=C(c1cc(Cc2n[nH]c(=O)c3ccccc23)ccc1F)N1CCN(c2ccc3c(OCCn4nc(N5CCOCC5)ccc4=O)ccnc3c2)CC1`, the figures for the concentration for half-maximal inhibition (IC50) in assay [3] and in assay [2] were 51.2 nM and 7.1 nM, respectively.
As for `Cn1cc(-c2ccc(=O)n(CCOc3ccnc4cc(NCCN5CCN(C(=O)c6cc(Cc7n[nH]c(=O)c8ccccc78)ccc6F)CC5)ccc34)n2)cn1`, the inhibition in assay [1] was under 50%. In addition, the IC50 in assay [2] was 32.2 nM.
For the compound `Cn1cc(-c2ccc(=O)n(CCOc3ccnc4cc(N5CCC(NC(=O)c6cc(Cc7n[nH]c(=O)c8ccccc78)ccc6F)CC5)ccc34)n2)cn1`, the IC50 was 64.2 nM in assay [3] and 42 nM in assay [2].
Turning to `O=C(c1cc(Cc2n[nH]c(=O)c3ccccc23)ccc1F)N1CCN(c2ccc3c(OCCn4nc(-c5ccc(C(F)(F)F)cc5)ccc4=O)ccnc3c2)CC1`, the inhibition in assay [1] was under 50%. The same compound had an IC50 in assay [2] of 7.3 nM.
In assay [1], `O=C(c1cc(Cc2n[nH]c(=O)c3ccccc23)ccc1F)N1CCN(c2ccc3c(OCCn4ncccc4=O)ccnc3c2)CC1` returned an inhibition of under 50%. In assay [2], this compound returned a concentration for half-maximal inhibition (IC50) of 0.9 nM.
